Measured values reported in patent US20140005163A1 (NOVARTIS AG, priority 2010, published 2014).

Target: T1, PI3K gamma (Homo sapiens, UniProt P48736)
T1 construct: His tag (C); made in house; host or cells: baculovirus (pVL1393); Tn5 or TiniPro insect cells; construct from Roger Williams lab, MRC LMB
Assay: PI3K gamma kinase assay (Kinase-Glo luminescence)
Type: biochemical
Details: not given
Summary of the method: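 Luminescent ATP-depletion (Kinase-Glo) assay with 150 nM PI3Kγ, 1 μM ATP and 10 μg/mL phosphatidylinositol in 10 mM Tris-HCl pH 7.5, 3 mM MgCl2, 50 mM NaCl, 0.05% CHAPS, 1 mM DTT; 120 min at room temperature. Eight-point dilutions; IC50 by four-parameter logistic fit.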

T1 sequence (P48736 144-1102 limits assumed): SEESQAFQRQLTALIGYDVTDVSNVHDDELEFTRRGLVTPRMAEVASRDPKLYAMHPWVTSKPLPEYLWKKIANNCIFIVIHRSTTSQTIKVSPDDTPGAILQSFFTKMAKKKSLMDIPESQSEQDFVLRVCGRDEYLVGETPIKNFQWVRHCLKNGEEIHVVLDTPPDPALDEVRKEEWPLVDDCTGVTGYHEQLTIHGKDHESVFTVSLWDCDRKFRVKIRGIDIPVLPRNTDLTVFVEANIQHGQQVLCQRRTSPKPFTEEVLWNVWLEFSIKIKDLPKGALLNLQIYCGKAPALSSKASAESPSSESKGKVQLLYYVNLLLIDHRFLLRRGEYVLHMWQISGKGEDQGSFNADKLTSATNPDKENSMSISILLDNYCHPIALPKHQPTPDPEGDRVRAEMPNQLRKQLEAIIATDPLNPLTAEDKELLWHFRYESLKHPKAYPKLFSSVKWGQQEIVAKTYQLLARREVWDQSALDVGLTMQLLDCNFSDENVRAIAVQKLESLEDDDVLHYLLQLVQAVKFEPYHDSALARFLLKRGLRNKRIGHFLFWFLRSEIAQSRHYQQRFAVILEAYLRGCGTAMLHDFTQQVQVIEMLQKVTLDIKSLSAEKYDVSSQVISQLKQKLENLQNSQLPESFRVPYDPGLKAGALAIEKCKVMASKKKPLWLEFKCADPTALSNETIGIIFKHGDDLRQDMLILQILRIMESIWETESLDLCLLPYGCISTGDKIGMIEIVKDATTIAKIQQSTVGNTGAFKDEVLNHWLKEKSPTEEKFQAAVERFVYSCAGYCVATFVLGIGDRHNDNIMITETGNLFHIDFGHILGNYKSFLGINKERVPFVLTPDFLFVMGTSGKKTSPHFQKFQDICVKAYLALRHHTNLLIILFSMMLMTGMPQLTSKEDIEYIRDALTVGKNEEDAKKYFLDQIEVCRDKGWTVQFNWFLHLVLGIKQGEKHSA

For `COc1ccc(-c2ccc3ncc4c(c3c2)n(-c2c(C)nn(C)c2C)c(=O)n4C)cc1OC` [Example 1.9, 8-(3,4-Dimethoxy-phenyl)-3-methyl-1-(1,3,5-trimethyl-1H-pyrazol-4-yl)-1,3-dihydro-imidazo[4,5-c]quinolin-2-one], which IC50 is on record?
The IC50 was 100 nM.

With `COc1ccc(-c2ccc3ncc4c(c3c2)n(-c2cnn(C)c2C)c(=O)n4C)cn1` [Example 2.9, 1-(1,5-Dimethyl-1H-pyrazol-4-yl)-8-(6-methoxy-pyridin-3-yl)-3-methyl-1,3-dihydro-imidazo[4,5-c]quinolin-2-one] as the molecule, how does the IC50 read?
Its IC50 is 206 nM.

For `CCOc1ccc(-c2ccc3ncc4c(c3c2)n(-c2cn(C)nc2Cl)c(=O)n4C)cn1` [Example 3.8, 1-(3-Chloro-1-methyl-1H-pyrazol-4-yl)-8-(6-ethoxy-pyridin-3-yl)-3-methyl-1,3-dihydro-imidazo[4,5-c]quinolin-2-one], which IC50 is on record?
The IC50 was 529 nM.

With `Cc1c(-n2c(=O)n(C)c3cnc4ccc(-c5ccc(N(C)C)nc5)cc4c32)cnn1C` [Example 4.4, 8-(6-Dimethylamino-pyridin-3-yl)-1-(1,5-dimethyl-1H-pyrazol-4-yl)-3-methyl-1,3-dihydro-imidazo[4,5-c]quinolin-2-one] as the molecule, how does the IC50 read?
The IC50 was 341 nM.

For `Cc1nn(C(C)C)cc1-n1c(=O)n(C)c2cnc3ccc(-c4cnc(N(C)C)nc4)cc3c21` [Example 6.1, 8-(2-Dimethylamino-pyrimidin-5-yl)-1-(1-isopropyl-3-methyl-1H-pyrazol-4-yl)-3-methyl-1,3-dihydro-imidazo[4,5-c]quinolin-2-one], which IC50 is on record?
The IC50 was 182 nM.

For `Cc1nn(C)cc1-n1c(=O)n(C)c2cnc3ccc(-c4cccnc4)cc3c21` [Example 10.2, 1-(1,3-Dimethyl-1H-pyrazol-4-yl)-3-methyl-8-pyridin-3-yl-1,3-dihydro-imidazo[4,5-c]quinolin-2-one], which IC50 is on record?
Its IC50 is 129 nM.

With `CCn1cc(-n2c(=O)n(C)c3cnc4ccc(-c5ccc(CO)nc5)cc4c32)c(C)n1` [Example 16.1, 1-(1-ethyl-3-methyl-1H-pyrazol-4-yl)-8-(6-hydroxymethyl-pyridin-3-yl)-3-methyl-1,3-dihydro-imidazo[4,5-c]quinolin-2-one] as the molecule, how does the IC50 read?
Its IC50 is 415 nM.

For `Cc1nn(C)cc1-n1c(=O)n(C)c2cnc3ccc(-c4cncc(S(C)(=O)=O)c4)cc3c21` [Example 22, 1-(1,3-Dimethyl-1H-pyrazol-4-yl)-8-(5-methanesulfonyl-pyridin-3-yl)-3-methyl-1,3-dihydro-imidazo[4,5-c]quinolin-2-one], which IC50 is on record?
The IC50 was 73 nM.

Which IC50 does the source give for `Cc1nn(C)cc1-n1c(=O)n(C)c2cnc3ccc(-c4cncnc4)cc3c21` [Example 26, 1-(1,3-Dimethyl-1H-pyrazol-4-yl)-3-methyl-8-pyrimidin-5-yl-1,3-dihydro-imidazo[4,5-c]quinolin-2-one] here?
Its IC50 is 777 nM.

Which IC50 does the source give for `Cc1nn(C)cc1-n1c(=O)n(C)c2cnc3ccc(-c4cc(O)cc(C(F)(F)F)c4)cc3c21` [Example 34, 1-(1,3-Dimethyl-1H-pyrazol-4-yl)-8-(3-hydroxy-5-trifluoromethyl-phenyl)-3-methyl-1,3-dihydro-imidazo[4,5-c]quinolin-2-one] here?
Its IC50 is 82 nM.

For `Cc1nn(C)cc1-n1c(=O)n(C)c2cnc3ccc(-c4cnc5[nH]ccc5c4)cc3c21` [Example 36, 1-(1,3-dimethyl-1H-pyrazol-4-yl)-3-methyl-8-(1H-pyrrolo[2,3-b]pyridin-5-yl)-1,3-dihydro-imidazo[4,5-c]quinolin-2-one], which IC50 is on record?
Its IC50 is 118 nM.

Which IC50 does the source give for `Cc1nn(C)cc1-n1c(=O)n(C)c2cnc3ccc(-c4ccc(OCC5CC5)nc4)cc3c21` [Example 42, 8-(6-Cyclopropylmethoxy-pyridin-3-yl)-1-(1,3-dimethyl-1H-pyrazol-4-yl)-3-methyl-1,3-dihydro-imidazo[4,5-c]quinolin-2-one] here?
Its IC50 is 590 nM.

For `CNC(=O)c1ccc(-c2ccc3ncc4c(c3c2)n(-c2cn(C)nc2Cl)c(=O)n4C)cc1` [Example 43.2, 4-[1-(3-Chloro-1-methyl-1H-pyrazol-4-yl)-3-methyl-2-oxo-2,3-dihydro-1H-imidazol[4,5-c]quinolin-8-yl]-N-methyl-benzamide], which IC50 is on record?
Its IC50 is 114 nM.

Which IC50 does the source give for `Cc1nn(C)cc1-n1c(=O)n(C)c2cnc3ccc(-c4ccc5c(c4)CCN5C)cc3c21` [Example 50, 1-(1,3-Dimethyl-1H-pyrazol-4-yl)-3-methyl-8-(1-methyl-2,3-dihydro-1H-indol-5-yl)-1,3-dihydro-imidazo[4,5-c]quinolin-2-one] here?
The IC50 was 334 nM.

With `CCCOc1ccc(-c2ccc3ncc4c(c3c2)n(-c2cn(C)nc2C)c(=O)n4C)cn1` [Example 55, 1-(1,3-Dimethyl-1H-pyrazol-4-yl)-3-methyl-8-(6-propoxy-pyridin-3-yl)-1,3-dihydro-imidazo[4,5-c]quinolin-2-one] as the molecule, how does the IC50 read?
The IC50 was 343 nM.

With `CCOc1cccc(-c2ccc3ncc4c(c3c2)n(-c2cn(C)nc2C)c(=O)n4C)c1` [Example 57, 1-(1,3-Dimethyl-1H-pyrazol-4-yl)-8-(3-ethoxy-phenyl)-3-methyl-1,3-dihydro-imidazo[4,5-c]quinolin-2-one] as the molecule, how does the IC50 read?
Its IC50 is 197 nM.

Which IC50 does the source give for `COc1ccc(-c2ccc3ncc4c(c3c2)n(-c2cn(CC(=O)N(C)C)nc2C)c(=O)n4C)cn1` [Example 102, 2-{4-[8-(6-Methoxy-pyridin-3-yl)-3-methyl-2-oxo-2,3-dihydro-imidazo[4,5-c]quinolin-1-yl]-3-methyl-pyrazol-1-yl}-N,N-dimethyl-acetamide] here?
The IC50 was 246 nM.

Which IC50 does the source give for `CCn1cc(-n2c(=O)n(C)c3cnc4ccc(-c5ccc(COC)nc5)cc4c32)c(C)n1` [Example 104, 1-(1-Ethyl-3-methyl-1H-pyrazol-4-yl)-8-(6-methoxymethyl-pyridin-3-yl)-3-methyl-1,3-dihydro-imidazo[4,5-c]quinolin-2-one] here?
Its IC50 is 582 nM.

For `Cc1nn(C(C)C)cc1-n1c(=O)n(C)c2cnc3ccc(-c4ccc(C(N)=O)nc4)cc3c21` [Example 112, 5-[1-(1-Isopropyl-3-methyl-1H-pyrazol-4-yl)-3-methyl-2-oxo-2,3-dihydro-1H-imidazo[4,5-c]quinolin-8-yl]-pyridine-2-carboxylic acid amide], which IC50 is on record?
Its IC50 is 471 nM.

Which IC50 does the source give for `Cc1nn(C)cc1-n1c(=O)n(C)c2cnc3ccc(-c4cccc(N(C)S(C)(=O)=O)c4)cc3c21` [Example 117, N-{3-[1-(1,3-Dimethyl-1H-pyrazol-4-yl)-3-methyl-2-oxo-2,3-dihydro-1H-imidazo[4,5-c]quinolin-8-yl]-phenyl}-N-methyl-methanesulfonamide] here?
The IC50 was 225 nM.

With `CNc1ccc(-c2ccc3ncc4c(c3c2)n(-c2cn(C(C)C)nc2C)c(=O)n4C)cn1` [Example 118.1, 1-(1-isopropyl-3-methyl-1H-pyrazol-4-yl)-3-methyl-8-(6-methylamino-pyridin-3-yl)-1,3-dihydro-imidazo[4,5-c]quinolin-2-one] as the molecule, how does the IC50 read?
The IC50 was 164 nM.

For `CNc1ccc(-c2ccc3ncc4c(c3c2)n(-c2cn(CC(=O)N(C)C)nc2C)c(=O)n4C)cn1` [Example 118.3, N,N-Dimethyl-2-{3-methyl-4-[3-methyl-8-(6-methylamino-pyridin-3-yl)-2-oxo-2,3-dihydro-imidazo[4,5-c]quinolin-1-yl]-pyrazol-1-yl}-acetamide], which IC50 is on record?
The IC50 was 138 nM.

Tested on: not listed separately
Assay: Cellular CaCo2 permeability assay from apical to basal (A-B)
Type: in vitro ADME
Details: human, Caco-2, read-out: Pe A-B (permeability)
Text: The permeability in 10^−6 cm/s of compounds of formula (I) have been confirmed for selected example using a cellular CaCo2 permeability assay from apical to basal (A-B): […]

Which Papp A→B does the source give for `CCNc1cc(-c2ccc3ncc4c(c3c2)n(-c2cn(C)nc2C)c(=O)n4C)cnc1C` [Example 87.1, 1-(1,3-Dimethyl-1H-pyrazol-4-yl)-8-(5-ethylamino-6-methyl-pyridin-3-yl)-3-methyl-1,3-dihydro-imidazo[4,5-c]quinolin-2-one] here?
Its Papp A→B is 17 ×10⁻⁶ cm/s.

With `Cc1nn(C)cc1-n1c(=O)n(C)c2cnc3ccc(-c4ccc(N5CCN(C)CC5)nc4)cc3c21` [Example 96, 1-(1,3-Dimethyl-1H-pyrazol-4-yl)-3-methyl-8-[6-(4-methyl-piperazin-1-yl)-pyridin-3-yl]-1,3-dihydro-imidazo[4,5-c]quinolin-2-one] as the molecule, how does the Papp A→B read?
Its Papp A→B is 6 ×10⁻⁶ cm/s.

Which Papp A→B does the source give for `COc1ccc(-c2ccc3ncc4c(c3c2)n(-c2cn(CC(=O)N(C)C)nc2C)c(=O)n4C)cn1` [Example 102, 2-{4-[8-(6-Methoxy-pyridin-3-yl)-3-methyl-2-oxo-2,3-dihydro-imidazo[4,5-c]quinolin-1-yl]-3-methyl-pyrazol-1-yl}-N,N-dimethyl-acetamide] here?
The Papp A→B was 7.7 ×10⁻⁶ cm/s.

With `CCn1cc(-n2c(=O)n(C)c3cnc4ccc(-c5ccc(COC)nc5)cc4c32)c(C)n1` [Example 104, 1-(1-Ethyl-3-methyl-1H-pyrazol-4-yl)-8-(6-methoxymethyl-pyridin-3-yl)-3-methyl-1,3-dihydro-imidazo[4,5-c]quinolin-2-one] as the molecule, how does the Papp A→B read?
The Papp A→B was 20.5 ×10⁻⁶ cm/s.
